Test results published in patent US9863949B2, “Method for predicting and evaluating responsiveness to cancer treatment with DNA-damaging chemotherapeutic agents” (NEKTAR THERAPEUTICS, priority 2013, dated 2018).
Where two headings read alike, the source gives them in different places.

How the values were obtained:
NCI-H460 cells = test: DNA damage pathway markers in NCI-H460 cells treated ex vivo, laser scanning cytometry; assay type: cell-based; conditions: NCI-H460, 0.01 μM drug
Protocol: The cell lines, H460, HCT116, and HL60 were used in the study. H460 (30,000 cells/well) and HCT116 (15,000 cells/well) were grown in three 48 well plates. HL60 suspension cells were grown in five 25 cm flasks (1×10^6 cells/flask). Cells were treated with the following two concentrations of gemcitabine and SN-38:
Cells treated with DMSO (final concentration 0.01%) were used as the control. Following 24 hours of drug treatment, cells were washed and fixed at 0 hour, 6 hour, and 24 hour timepoints. Cells were then stained for detection of the following markers: γ-H2AX, survivin, BRCA1, BRCA2, FAD51, and ATM. Expression levels for each biomarker were determined based upon mean fluorescence intensity (MFI) by laser scanning cytometry (iCys).

HL60 = test system: HL60
Protocol: (§1) Gemcitabine inhibits thymidylate synthetase, leading to inhibition of DNA synthesis and cell death. The cells were treated at concentrations of 0.01, 0.1, 1 and 10 μM in triplicate with appropriate controls.
(§2) A MTT cytotoxicity assay was performed. Optical density (OD) was determined for each sample, and IC50 values were determined (Graphpad Prism software using 4-parameter, non-linear curve fitting) for each drug relative to each cell line. The dose response of SN-38 and gemcitabine in the different cell lines was plotted.

NCI-H460 = test system: NCI-H460
Protocol: as §1, §2

HCT116 cells = test: Biomarker assay qualification, drug-treated HCT116 cells, MFI by iCys; assay type: cell-based, human; conditions: HCT116 treated with 10 μM SN-38 for 24 hours
Protocol: Primary and secondary antibodies were obtained from commercial sources. Control (0.1% DMSO) and drug-treated (SN-38, 10 uM) tumor cell lines and peripheral blood mononuclear cells (PBMCs) from healthy donors were used for biomarker qualification. The cell lines employed were as follows: HCT 116 (human colon carcinoma), MCF7 (human breast adenocarcinoma), A549 (human lung carcinoma), and SK-BR-3 (human breast adenocarcinoma, derived from metastatic site).
(§3) Colorectal HCT-116 tumor cell lines treated with drug (SN-38, 10 μM) or DMSO (0.1%) were used as positive and negative controls, respectively, for the assay development for topoisomerase I and γ-H2Ax. […] After incubation, cells were detached using 0.25% trypsin for 2-5 minutes, washed, counted, fixed with 2% PFA for 20 minutes, and cytospun onto glass slides.
as §3, with “controls” for “controls, respectively,”, “of RAD51.” for “for topoisomerase I and γ-H2Ax.”
For each marker, one to three different antibodies were tested. […] Cells were cover slipped and fluorescence intensity was quantified using iCys (CompuCyte, Westwood, Mass.). […]

[1] = 24 hr drug + 24 hr without drug

Protocol for metastatic breast cancer: Seventy patients were enrolled in the trial (n=35 per arm). […] Fifteen (21.4%) patients had received prior bevacizumab. Among five patients with HER2-positive disease, all had received prior trastuzumab; none had received prior lapatinib.
Patients were randomized 1:1 into two treatment arms, comparing the same dose with a different dosing frequency. 4-arm-PEG-gly-irino-20K was administered at 145 mg/m^2 every 14 days (q14d) or every 21 days (q21 d) as an intravenous infusion over 90 minutes on day 1. Patients received treatment until disease progression or unacceptable toxicity. The drug dosage was dose-reduced by 25 mg/m^2 for grade 3-4 hematologic toxicity, grade 3-4 diarrhea, and other grade 2-4 non-hematologic toxicities (other than alopecia, anorexia, asthenia, and untreated nausea/vomiting). Protocol retreatment criteria required that toxicities and hematologic parameters were resolved to the following grades or levels prior to administration of the next dose: diarrhea, fully resolved; other non-hematologic toxicities, grade 1; neutrophils≧1,500/mm^3; platelets≧100,000/mm^3; and hemoglobin≧9 g/dL.
Medical history was taken at screening and on day 1 of each cycle. Physical exam was performed and serum CA27.29, complete blood count with differential, and serum chemistry were analyzed at screening, on day 1 of each cycle, and at end of treatment. Coagulation parameters were analyzed at screening and on day 1 of each cycle. Radiologic exam (either computed tomography or magnetic resonance imaging, with the same method per lesion used throughout the study) occurred at screening (within 28 days of day one, cycle 1) and approximately every 6 weeks thereafter until progressive disease, start of new anticancer therapy, or end of study. Patients were contacted approximately every 3 months after the end-of-treatment visit to assess progression (in the absence of progression on study), survival, receipt of subsequent anti-cancer therapy, and resolution of toxicity.
Response was measured by RECIST version 1.0 (Therasse, P., et al., 2000, Journal of the National Cancer Institute, 92 (3), 205-216) and toxicities were graded according to the National Cancer Institute Common Terminology Criteria for Adverse Events (NCI-CTCAE) version 3.0.
The primary endpoint was ORR, with confirmation of all responses by a second imaging procedure at least 28 days from the initial observation of response. Secondary endpoints were PFS, overall survival (OS), 6-month and 1-year survival, and safety. Exploratory endpoints included change from baseline in CA27.29, UGT1A1 and ABCC2 polymorphism for correlation with select toxicities.
Three populations for analysis were defined: 1) intent-to-treat (ITT), 2) efficacy evaluable, and 3) safety. The ITT population was the primary population for all efficacy analyses and included all randomized patients. […] The safety population consisted of all patients who received at least one dose or partial dose of chemotherapeutic agent.
Summary statistics were used for continuous variables, frequency counts and percentages were used for categorical variables. Ninety-five percent confidence interval were calculated for ORR using the Exact method. Time-to-event variables were analyzed using the Kaplan-Meier method.

Nc1ccn([C@@H]2O[C@H](CO)[C@@H](O)C2(F)F)c(=O)n1 [Gemcitabine, gemcitabine]
ATM % change in MFI (NCI-H460 cells; 24 hr drug): 125%
ATM % change of positive cells (NCI-H460 cells; 24 hr drug): −28%
BRCA1 % change in MFI (NCI-H460 cells; 24 hr drug): −3%
BRCA1 % change of positive cells (NCI-H460 cells; 24 hr drug): 162%
BRCA2 % change in MFI (NCI-H460 cells; 24 hr drug): −43%
BRCA2 % change of positive cells (NCI-H460 cells; 24 hr drug): 130%
RAD51 % change in MFI (NCI-H460 cells; 24 hr drug): 7%
RAD51 % change of positive cells (NCI-H460 cells; 24 hr drug): 62%
Survivin % change in MFI (NCI-H460 cells; 24 hr drug): −32%
Survivin % change of positive cells (NCI-H460 cells; 24 hr drug): −32%
yH2AX % change in MFI (NCI-H460 cells; 24 hr drug): 3%
yH2AX % change of positive cells (NCI-H460 cells; 24 hr drug): 204%
ATM % change in MFI (NCI-H460 cells; 24 hr drug + 6 hr without drug): 438%
ATM % change of positive cells (NCI-H460 cells; 24 hr drug + 6 hr without drug): 80%
BRCA1 % change in MFI (NCI-H460 cells; 24 hr drug + 6 hr without drug): 18%
BRCA1 % change of positive cells (NCI-H460 cells; 24 hr drug + 6 hr without drug): −54%
BRCA2 % change in MFI (NCI-H460 cells; 24 hr drug + 6 hr without drug): −28%
BRCA2 % change of positive cells (NCI-H460 cells; 24 hr drug + 6 hr without drug): 6%
RAD51 % change in MFI (NCI-H460 cells; 24 hr drug + 6 hr without drug): 127%
RAD51 % change of positive cells (NCI-H460 cells; 24 hr drug + 6 hr without drug): 613%
Survivin % change in MFI (NCI-H460 cells; 24 hr drug + 6 hr without drug): 223%
Survivin % change of positive cells (NCI-H460 cells; 24 hr drug + 6 hr without drug): 1%
yH2AX % change in MFI (NCI-H460 cells; 24 hr drug + 6 hr without drug): 40%
yH2AX % change of positive cells (NCI-H460 cells; 24 hr drug + 6 hr without drug): 1235%
ATM % change in MFI (NCI-H460 cells; [1]): 151%
ATM % change of positive cells (NCI-H460 cells; [1]): 40%
BRCA1 % change in MFI (NCI-H460 cells; [1]): 206%
BRCA1 % change of positive cells (NCI-H460 cells; [1]): 3750%
BRCA2 % change in MFI (NCI-H460 cells; [1]): 296%
BRCA2 % change of positive cells (NCI-H460 cells; [1]): 167%
RAD51 % change in MFI (NCI-H460 cells; [1]): 23%
RAD51 % change of positive cells (NCI-H460 cells; [1]): 260%
Survivin % change in MFI (NCI-H460 cells; [1]): 457%
Survivin % change of positive cells (NCI-H460 cells; [1]): −14%
yH2AX % change in MFI (NCI-H460 cells; [1]): 288%
yH2AX % change of positive cells (NCI-H460 cells; [1]): 1834%
dose response in MTT cytotoxicity assay (HL60): Good dose response
dose response in MTT cytotoxicity assay (NCI-H460): Good dose response

CCc1c2c(nc3ccc(O)cc13)-c1cc3c(c(=O)n1C2)COC(=O)[C@]3(O)CC [SN-38]
ATM % change in MFI (NCI-H460 cells; 24 hr drug): 120%
ATM % change of positive cells (NCI-H460 cells; 24 hr drug): 13%
BRCA1 % change in MFI (NCI-H460 cells; 24 hr drug): −8%
BRCA1 % change of positive cells (NCI-H460 cells; 24 hr drug): 143%
BRCA2 % change in MFI (NCI-H460 cells; 24 hr drug): −20%
BRCA2 % change of positive cells (NCI-H460 cells; 24 hr drug): 131%
RAD51 % change in MFI (NCI-H460 cells; 24 hr drug): −8%
RAD51 % change of positive cells (NCI-H460 cells; 24 hr drug): 180%
Survivin % change in MFI (NCI-H460 cells; 24 hr drug): 149%
Survivin % change of positive cells (NCI-H460 cells; 24 hr drug): −18%
yH2AX % change in MFI (NCI-H460 cells; 24 hr drug): 1%
yH2AX % change of positive cells (NCI-H460 cells; 24 hr drug): 235%
ATM % change in MFI (NCI-H460 cells; 24 hr drug + 6 hr without drug): 329%
ATM % change of positive cells (NCI-H460 cells; 24 hr drug + 6 hr without drug): 88%
BRCA1 % change in MFI (NCI-H460 cells; 24 hr drug + 6 hr without drug): −10%
BRCA1 % change of positive cells (NCI-H460 cells; 24 hr drug + 6 hr without drug): −52%
BRCA2 % change in MFI (NCI-H460 cells; 24 hr drug + 6 hr without drug): −16%
BRCA2 % change of positive cells (NCI-H460 cells; 24 hr drug + 6 hr without drug): 8%
RAD51 % change in MFI (NCI-H460 cells; 24 hr drug + 6 hr without drug): 120%
RAD51 % change of positive cells (NCI-H460 cells; 24 hr drug + 6 hr without drug): 337%
Survivin % change in MFI (NCI-H460 cells; 24 hr drug + 6 hr without drug): 203%
Survivin % change of positive cells (NCI-H460 cells; 24 hr drug + 6 hr without drug): 4%
yH2AX % change in MFI (NCI-H460 cells; 24 hr drug + 6 hr without drug): −7%
yH2AX % change of positive cells (NCI-H460 cells; 24 hr drug + 6 hr without drug): 919%
ATM % change in MFI (NCI-H460 cells; [1]): 41%
ATM % change of positive cells (NCI-H460 cells; [1]): 105%
BRCA1 % change in MFI (NCI-H460 cells; [1]): 162%
BRCA1 % change of positive cells (NCI-H460 cells; [1]): 3700%
BRCA2 % change in MFI (NCI-H460 cells; [1]): 263%
BRCA2 % change of positive cells (NCI-H460 cells; [1]): 261%
RAD51 % change in MFI (NCI-H460 cells; [1]): 32%
RAD51 % change of positive cells (NCI-H460 cells; [1]): 60%
Survivin % change in MFI (NCI-H460 cells; [1]): 210%
Survivin % change of positive cells (NCI-H460 cells; [1]): 85%
yH2AX % change in MFI (NCI-H460 cells; [1]): −77%
yH2AX % change of positive cells (NCI-H460 cells; [1]): 328%
dose response in MTT cytotoxicity assay (HL60; HL60, 72 hours, 0.01-10 μM): Good dose response
dose response in MTT cytotoxicity assay (NCI-H460; H460, 72 hours, 0.01-10 μM): Good dose response
γ-H2Ax High, MFI (x10^3) (HCT116 cells; staining panel 1): HCT116 (SN38), 487 x10^3
RAD51 High, MFI (x10^3) (HCT116 cells; staining panel 2): HCT116 (SN38), 948 x10^3

pentaerythritolyl-4-arm-(PEG-1-methylene-2 oxo-vinylamino acetate linked-irinotecan)-20K [4-arm-PEG-gly-irino-20K]
objective response rate (ORR) (metastatic breast cancer; 145 mg/m^2 IV, every 14 days or every 21 days): 28.6%
Overall Survival (OS) (metastatic breast cancer; Total): 10.3 months
Progression Free Survival (PFS) (metastatic breast cancer; Total): 4.6 months
Overall best CA27.29 response (50% or better decline in at least one observation from baseline) (metastatic breast cancer; Total, 16/45): 36% (16/45)
Overall Response Rate (ORR) (metastatic breast cancer; Total, N = 66): 29% (N = 66)
Overall Survival (OS) (metastatic breast cancer; q21d): (13.1 months in q21d)
Progression Free Survival (PFS) (metastatic breast cancer; q21d): (5.3 months in q21d)
